{"source": "patent US6878699B1", "about": "“Taccalonolide microtubule stabilizing agents” (University of Hawaii, priority 1999, dated 2005)", "key": {"[1]": {"tested_on": "SKVLB-1 cell line (sub-line of SK-OV-3 selected for resistance to vinblastine, P-glycoprotein-overexpressing)", "conditions": "SK-OV-3 versus SKVLB-1; Mooberry et al. 1999, Smith et al. 1994; cited from earlier work"}, "[2]": {"tested_on": "SKVLB-1 cell line (sub-line of SK-OV-3 selected for resistance to vinblastine, P-glycoprotein-overexpressing)", "experimental": "(§1) A-10 rat aortic smooth muscle cells, SK-OV-3 human ovarian carcinoma cell line and HeLa cells were obtained from the American Type Culture Collection (Manassas, Va.) and were cultured in BME containing 10% FBS and 50 μg/1 mL gentamycin sulfate. […] The A-10, HeLa, SK-OV-3, and SKVBL-1 cells were grown in Basal Medium Eagle containing Earle's salts, 50 μg/ml gentamycin, and 10% fetal bovine sorum (Hyclone, Logan Utah). Vinblastine was added to a final concentration of 1 μg/mL to SKVLB-1 cells 24 hours after passage to maintain selection pressure for P-glycoprotein-overexpressing cells.\n(§2) The IC50 for inhibition of cell proliferation was determined by measuring cell-associated protein after drug treatment using the sulforhodamine B assay (see, for example, J. Natl. Cancer Inst. 82:1107-1112 (1990) and Drug Development Res. 34:91-109 (1995)).\n(§3) The IC50 for each cell line was calculated from the dose response curves. The resistance factor was calculated by dividing the IC50 of the drug sensitive cell line by the IC50 of the drug resistant cell line. The values represent the mean of 3 or 4 experiments ± the SD."}, "[3]": {"tested_on": "MDA-MB-435 human mammary adenocarcinoma cell line", "experiment": "Inhibition of cell proliferation, sulforhodamine B (SRB) assay", "conditions": "read-out: IC50 inhibition of proliferation, MDA-MB-435, 48 hr treatment, mean of 3 or 4 experiments ± SD", "experimental": "as §1, §2, §3"}, "[4]": {"tested_on": "SK-OV-3 human ovarian carcinoma cell line", "experiment": "Inhibition of cell proliferation, sulforhodamine B (SRB) assay", "format": "cell-based", "conditions": "48 hr treatment, mean of 3 or 4 experiments ± SD", "experimental": "as §1, §2, §3"}, "[5]": {"tested_on": "A-10 rat aortic smooth muscle cells", "experiment": "Indirect immunofluorescence of microtubules, mitotic spindles and nuclei", "conditions": "low concentration 0.5 μM; cell line not specified (A-10 or HeLa)", "experimental": "A-10 cells were grown to 70-85% confluency on glass coverslips in BME/10% FBS. Drug compounds in PBS were added to the indicated final concentrations and cells were incubated for an additional 24 hours. For the staining of microtubules and intermediate filaments, the cells were fixed with cold methanol for 5 minutes, blocked for 20 minutes with PBS containing 10% calf serum to block nonspecific binding sites, and incubated at 37° C. for 60-90 min with monoclonal anti-β-tubulin at the dilutions recommended by the manufacturer. Bound primary antibodies were subsequently visualized by a one hour incubation with fluorescein (FITC)-conjugated sheep antimouse IgG (F-3008; Sigma). The coverslips were washed, stained with 0.1 μg/mL DAPI for 10 minutes, mounted on microscope slides and the fluorescence patterns were examined and photographed using a Zeiss Axioplan microscope equipped with epifluorescence optics for fluorescein and DAPI."}, "[6]": {"tested_on": "Bc1-2 and caspase 3", "conditions": "18 and 24 hrs following treatment", "experimental": "Following drug exposure the cells were harvested and cellular proteins extracted in radioimmunoprecipitation buffer in the presence of protease inhibitors as described previously (see Mooberry et al., Supra). The protein concentrations of the samples were determined (Pierce Reagent, Rockford, Ill.) and cell lysate aliquots containing equal concentrations of protein were separated, transferred, probed with specific antibodies, and detected as previously described (see Mooberry et al., in Cancer Res. 59:653-660 (1999)). The Bc1-2 and caspase 3 antibodies were purchased from PharMingin (San Diego, Calif.)."}, "[7]": {"tested_on": "SKVLB-1 cell line (sub-line of SK-OV-3 selected for resistance to vinblastine, P-glycoprotein-overexpressing)", "experiment": "Inhibition of cell proliferation, SRB assay, multidrug-resistant line", "experimental": "as §1, §2, §3"}, "[8]": {"tested_on": "purified glycerol-free bovine brain tubulin", "experiment": "Assembly of purified tubulin (turbidity)", "format": "biochemical", "conditions": "for Potency in tubulin polymerization relative to Taxol/paclitaxel: compared with 2 μM paclitaxel", "procedure": "The assembly of purified tubulin was monitored spectrophotometrically by the change in absorbance at 340 nm. Purified glycerol-free bovine brain tubulin (TL-238, Cytoskeleton, Denver, Colo.) was solubilized in ice cold G-PEM buffer (80 mM PIPES, pH 6.9, 1 mM MgCl2, 1 mM EGTA and 1 mM GTP) and taccalonolide, Taxol or vehicle control was added and mixed well. The final concentration of tubulin was 1 mg/ml and ethanol concentration was 1% or less. An aliquot of the mixture was transferred to a room temperature 96 well plate and tubulin polymerization monitored for 60 min. at 35° C. in a temperature controlled microplate spectrophotometer."}}}
{"compound": "C=C1C[C@H](C)C[C@@H]2CC=C[C@@H](C/C=C\\C(=O)O[C@H]([C@@H](O)/C=C/[C@@H]3CC(C)=CCO3)C[C@@H]3O[C@H]3[C@@H](O)C1)O2", "note": "[laulimalide]", "values": [{"measurement": "Resistance factor (literature)", "setting": "[1]", "result": 105}]}
{"compound": "COc1ccc(C[C@H]2NC(=O)/C=C/C[C@@H]([C@H](C)[C@H]3O[C@@H]3c3ccccc3)OC(=O)[C@H](CC(C)C)OC(=O)[C@H](C)CNC2=O)cc1Cl", "note": "[cryptophycin 1]", "values": [{"measurement": "Resistance factor (literature)", "setting": "[1]", "result": 1.1}]}
{"compound": "CC(=O)O[C@H]1C(=O)[C@@]2(C)[C@H]([C@H](OC(=O)c3ccccc3)[C@]3(O)C[C@H](OC(=O)[C@H](O)[C@@H](NC(=O)c4ccccc4)c4ccccc4)C(C)=C1C3(C)C)[C@]1(OC(C)=O)CO[C@@H]1C[C@@H]2O", "note": "[Paclitaxel]", "values": [{"measurement": "Resistance factor (literature)", "setting": "[1]", "result": "greater than 58,000"}, {"measurement": "inhibition", "setting": "[2]", "result": "≤ 70", "unit": "%"}]}
{"compound": "taccalonolide A", "values": [{"measurement": "IC50", "setting": "[3]", "result": 2100, "unit": "nM"}, {"measurement": "IC50", "setting": "[4]", "result": 2300, "unit": "nM"}, {"measurement": "First observable cellular change in dose-response study", "setting": "[5]", "result": "abnormal coordination of the DNA in the metaphase plate during mitosis"}, {"measurement": "p17 subunit of activated caspase 3 by immunoblot", "setting": "[6]", "result": "detected"}, {"measurement": "Inhibition of proliferation of SKVLB-1 (in words)", "setting": "[7]; P-glycoprotein overexpressing line", "result": "completely inhibit the proliferation"}, {"measurement": "Resistance factor", "setting": "[7]; SK-OV-3 (drug-sensitive) versus SKVLB-1 (drug resistant) IC50", "result": 285}, {"measurement": "Substrate for P-glycoprotein mediated drug transport", "setting": "[7]; inferred from resistance factor SK-OV-3/SKVLB-1", "result": "poor substrate"}, {"measurement": "IC50", "setting": "[7]; read-out: IC50 inhibition of proliferation, SKVLB-1, 48 hr treatment, SRB assay, multidrug-resistant line, mean of 3 or 4 experiments ± SD", "result": "656000 ± 42000", "unit": "nM"}, {"measurement": "Effect on polymerization of purified tubulin", "setting": "[8]; 2 μM and 200 μM, 35° C., 60 min", "result": "stimulated the polymerization of tubulin"}, {"measurement": "Potency in tubulin polymerization relative to Taxol/paclitaxel", "setting": "[8]; listed as Taccalonolide", "result": "much less potent than Taxol"}, {"measurement": "Potency in tubulin polymerization relative to Taxol/paclitaxel", "setting": "[8]; listed as taccalonolide", "result": "much less potent than paclitaxel"}]}
